Experimental data: ChEMBL document CHEMBL1177747, “Cytotoxic flavonoids as agonists of peroxisome proliferator-activated receptor gamma on human cervical and prostate cancer cells” (J Nat Prod, 2010)

Tests used:
HeLa = assay: Cytotoxicity against human HeLa cells after 48 hrs by MTT assay; format: functional, cell-based
MCF7 = assay: Cytotoxicity against human MCF7 cells after 48 hrs by MTT assay; format: functional, cell-based; details: MCF7, 48 h
[1] = target: T1, Peroxisome proliferator-activated receptor gamma (Homo sapiens) (UniProt P37231); assay: Agonist activity at human PPARgamma expressed in Escherichia coli BL21 assessed as stimulation of binding between receptor and steroid receptor coactivator-1 by ELISA
T1 sequence (whole entry): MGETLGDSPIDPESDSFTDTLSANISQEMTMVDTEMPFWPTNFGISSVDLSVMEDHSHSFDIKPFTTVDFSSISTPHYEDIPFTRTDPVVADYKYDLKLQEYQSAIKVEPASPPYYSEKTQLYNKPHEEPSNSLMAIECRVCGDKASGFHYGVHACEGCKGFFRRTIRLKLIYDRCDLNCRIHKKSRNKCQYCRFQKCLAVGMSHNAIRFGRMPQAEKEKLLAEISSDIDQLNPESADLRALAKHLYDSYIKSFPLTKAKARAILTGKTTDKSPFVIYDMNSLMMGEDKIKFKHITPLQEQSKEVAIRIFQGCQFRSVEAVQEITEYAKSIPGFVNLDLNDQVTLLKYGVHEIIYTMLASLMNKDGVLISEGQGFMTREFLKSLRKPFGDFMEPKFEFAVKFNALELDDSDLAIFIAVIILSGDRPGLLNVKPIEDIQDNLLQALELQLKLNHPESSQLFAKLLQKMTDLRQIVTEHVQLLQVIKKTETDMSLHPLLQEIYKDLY

[2] = target: T1, Peroxisome proliferator-activated receptor gamma (Homo sapiens); assay: Agonist activity at human PPARgamma expressed in Escherichia coli BL21 assessed as stimulation of binding between receptor and steroid receptor coactivator-1 at 320 uM by ELISA relative to untreated control
PC-3 = assay: Cytotoxicity against human PC3 cells after 48 hrs by MTT assay; format: functional, cell-based; details: PC-3, 48 h
A549 = assay: Cytotoxicity against human A549 cells after 48 hrs by MTT assay; format: functional, cell-based; details: A549, 48 h
MDA-MB-231 = assay: Cytotoxicity against human MDA-MB-231 cells after 48 hrs by MTT assay; format: functional, cell-based; details: MDA-MB-231, 48 h
[3] = target: T1, Peroxisome proliferator-activated receptor gamma (Homo sapiens); assay: Binding affinity to human PPARgamma expressed in Escherichia coli BL21 assessed as binding constant by fluorescence quenching assay

Row | Activity [1] | fold change (FC) [2] | K [3] [×10⁵ /M] | SMILES | IC50 (HeLa) [µM] | IC50 (MCF7) [µM] | IC50 (PC-3) [µM] | IC50 (A549) [µM] | IC50 (MDA-MB-231) [µM]
1 | Dose-dependent effect | 7 | 2.36 | O=c1c(O)c(-c2ccccc2)oc2ccc(O)cc12 | 12.5 | > 100 | 50 | 100 | > 100
2 |  | 2 | 3.39 | COc1ccc2c(c1)c(CC(=O)O)c(C)n2C(=O)c1ccc(Cl)cc1 [INDOMETHACIN] | 50 | > 100 | > 100 | > 100 | > 100
